The nature of data set [1]: in vitro. The method, then:
Human Liver Microsomal metabolic stability: The microsomal metabolic stability assay utilized pooled human liver microsomes (mixed gender, BD Gentest), with supplemented cofactors NADPH and UDPGA (Solarbio S&T Co., LTD). Two separate experiments were performed as follows: • a) With cofactors (NADPH & UDPGA): 25 μL of 10 mM NADPH and 25 μL of 20 mM UDPGA were added to 197.5 μL of reaction solution (phosphate buffer (final concentration in assay 100 mM), MgCl2 (final concentration in assay (5 mM)), alamethacin (final concentration in assay 0.025 mg/mL) and microsomes (final concentration in assay 0.5 mg/mL). • b) Without cofactors (NADPH & UDPGA): 50 μL of H2O was added to 197.5 μL of reaction solution.
The mixture was pre-warmed at 37° C. for 10 minutes. The reaction was started with the addition of 2.5 μL of 100 μM control compound or test compound solutions. Diclofenac was used as positive control in this study. The final concentration of control compound and test compounds was 1 μM. Aliquots of 25 μL were taken from the reaction solution at 0.5, 5, 15, 30 and 60 minutes. The reaction was stopped by the addition of 5 volumes of cold acetonitrile containing internal standards. Samples were centrifuged at 3,220 g for 40 minutes. An aliquot of 100 μL of the supernatant was mixed with 100 μL of ultra-pure H2O and then used for LC-MS/MS analysis. Peak areas were determined from extracted ion chromatograms. Percent parent remaining was calculated from the area ratio of test compound. The slope value was determined by linear regression of the natural logarithm of percent parent remaining versus incubation time curve.
(§1) Peak areas were determined from extracted ion chromatograms to determine the in vitro half-life (t½) of parent compound by regression analysis of the percent parent disappearance vs. time curve. The in vitro half-life (in vitro t½) was determined from the slope value (in vitro t½=−0.693/k). All calculations were carried out using Microsoft Excel.

Data set [2] can be described thus: in vitro. On the procedure:
Human Hepatocyte metabolic stability: Human hepatocytes (X008000, BioIVT) were freshly thawed prior to the incubations with test compound. Hepatocytes were transferred to 50 mL conical tubes and centrifuged 10 min at 100 g. Thawing medium was removed and replaced by preheated (37° C.) incubation medium (William's E Medium supplemented with GlutaMAX), to yield a hepatocyte density ˜1.5×10^6 cells/mL. Cell viability was determined using AO/PI staining and hepatocytes were diluted using incubation medium to a working density of 0.5×10^6 viable cells/mL. 198 μL of hepatocytes were added into each well of a 96-well plate and placed in the incubator to allow the hepatocytes to warm for 10 minutes. 2 μL test compound or positive control was placed into respective wells of the 96-well plate (final concentration test compound 1 μM) to start the reaction. The plate was returned to the incubator and 25 μL aliquots of the well contents were removed at time points of 0, 15, 30, 60, 90 and 120 minutes. The aliquots were mixed with 6 volumes (150 μL) of acetonitrile containing internal standards (100 nM alprazolam, 200 nM caffeine, and 100 nM tolbutamide) to terminate the reaction. The plate was centrifuged for 20 minutes at 3,200 g. Aliquots of 150 μL of the supernatants were used for LC/MS/MS analysis. All incubations were performed in duplicate.
as §1
This is another data set of the same source.

Another data set has as its target recombinant human DHODH (Homo sapiens (Human), UniProt Q02127). In words: DHODH enzyme assay (Assay A), DCIP absorbance. It counts as biochemical. The method, then:
Inhibition of human dihydroorotate dehydrogenase (DHODH) by example compounds as described herein was determined using one of two assays as described below.
DHODH enzyme assays were performed with 6 nM recombinant human DHODH (purified essentially as described by Walse et al., Biochemistry, 47, 8929-8936 (2008)). The reaction mixture consisted of 1 mM DL-dihydroorotic acid (#D7003, Sigma-Aldrich), 100 μM 3,4-dimethoxy-5-methyl-p-benzoquinone (#D9150, Sigma-Aldrich), and 100 μM 2,6-dichlorophenolindophenol sodium salt (DCIP) (#D1878, Sigma-Aldrich) in enzyme buffer (50 mM Tris-HCl pH 8.0, 0.1% Triton X-100, 150 mM KCl). A stock solution of 20 mM DCIP was prepared in enzyme buffer and filtered through Whatman paper just before use. Reactions were performed in a total volume of 100 μL, consisting of 1 μL of compound, 49 μL of enzyme and 50 μL of reaction mixture. Loss in absorbance by chromogen DCIP was measured at 595 nm following a 70 minute incubation at 32° C.

The test system of another data set is MOLM-13 cells. As to the kind of experiment: MOLM-13 cell viability (Assay B), Cell Titer-Glo. It counts as cell-based. Particulars: Homo sapiens, read-out: IC50 MOLM13 inhibition activity. On the procedure:
MOLM-13 cells (an acute myeloid leukemia cell line) were plated in RPMI supplied with 10% FBS and 1% Pen/Strep in 384-well plates at 1,000 cells per well on day 0. On day 1, treatment of the cells with compound (concentration range 10E-5 and 6E-12 M) was initiated in the presence or absence of 100 μM uridine. After 72 hours incubation of the cells with or without test compound, the number of viable cells per well was assessed by Cell Titer-Glo Luminescent Cell Viability Assay (Promega, Madison, WI, USA). […] Each condition was tested in duplicate and the potency of test compounds was determined from two independent experiments.
(In general: In ATP-based viability assays light output follows the ATP content of the culture.)

Where [3] appears, read: bins ≥10 nM-<100 nM and <10 nM, read-out: IC50 DHODH inhibition activity.
Setting [4] is: MOLM-13, 72 hours, bins ≥10 nM-<100 nM and <10 nM.

Broadly, the half-life is the time needed for the level to fall by half in the phase considered. Usually IC50 stands for the concentration that gives 50% inhibition.

SMILES strings stand for the structures. Like-named read-outs stand apart in the source and are kept apart here.

recombinant human DHODH, sequence (Q02127 whole entry): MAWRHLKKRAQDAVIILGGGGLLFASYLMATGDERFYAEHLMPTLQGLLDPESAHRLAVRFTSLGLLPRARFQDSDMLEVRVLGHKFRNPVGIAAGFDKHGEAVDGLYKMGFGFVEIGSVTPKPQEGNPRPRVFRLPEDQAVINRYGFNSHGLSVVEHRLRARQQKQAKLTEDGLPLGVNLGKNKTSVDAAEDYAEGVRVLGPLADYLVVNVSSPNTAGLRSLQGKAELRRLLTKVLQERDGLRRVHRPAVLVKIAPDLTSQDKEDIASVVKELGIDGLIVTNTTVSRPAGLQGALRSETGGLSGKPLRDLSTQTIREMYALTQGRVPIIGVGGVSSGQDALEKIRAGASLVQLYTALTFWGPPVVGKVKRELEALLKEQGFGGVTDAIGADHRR

In the case of `O=C(N[C@H]1COCc2c1cnn2-c1c(F)cccc1Cl)c1ncn2c1CCCC2` (single isomer, unassigned) [Ex-10], the HLM % remaining in the data set “in vitro [1]” (% remaining at 60 min, 1 μM) was 100%. Also, the half-life at 1 μM in the data set “in vitro [1]” (both, human, pooled liver microsomes) was > 6.08 h; in the data set “in vitro [2]” (human, hepatocytes), > 10 h. The hHEPs % remaining in “in vitro [2]” (% remaining at 120 min, 1 μM) is given as 100%.

Consider `COc1ccc(F)c(-n2ncc3c2COC[C@H]3NC(=O)c2cc(C)c(C)cn2)c1Cl` [Ex-33, (S)—N-(1-(2-chloro-6-fluoro-3-methoxyphenyl)-1,4,5,7-tetrahydropyrano[3,4-c]pyrazol-4-yl)-4,5-dimethylpicolinamide], for which the IC50 at recombinant human DHODH (setting [3]) and with MOLM-13 cells (setting [4]) was 0.01 to 0.1 µM in each case.

In the case of `CCc1c(C(=O)N[C@@H]2COCc3c2cnn3-c2c(C)cccc2Cl)ncn1C` [Ex-35, (S)—N-(1-(2-chloro-6-methylphenyl)-1,4,5,7-tetrahydropyrano[3,4-c]pyrazol-4-yl)-5-ethyl-1-methyl-1H-imidazole-4-carboxamide], the IC50 at recombinant human DHODH (setting [3]) and in the data set on MOLM-13 cells (setting [4]) was < 0.01 µM in each case.

Take `Cc1cccc(Cl)c1-n1ncc2c1COC[C@H]2NC(=O)c1ncc2n1CCCC2` [Ex-36, (S)—N-(1-(2-chloro-6-methylphenyl)-1,4,5,7-tetrahydropyrano[3,4-c]pyrazol-4-yl)-5,6,7,8-tetrahydroimidazo[1,5-a]pyridine-3-carboxamide]: the IC50 at recombinant human DHODH (setting [3]) and in the data set with MOLM-13 cells (setting [4]) was < 0.01 µM each time.

With `Cc1cccc(Cl)c1-n1ncc2c1COC[C@H]2NC(=O)c1n[nH]c2c1CCCC2` [Ex-37, (S)—N-(1-(2-chloro-6-methylphenyl)-1,4,5,7-tetrahydropyrano[3,4-c]pyrazol-4-yl)-4,5,6,7-tetrahydro-1H-indazole-3-carboxamide], the IC50 at recombinant human DHODH (setting [3]) and in the data set on MOLM-13 cells (setting [4]) was 0.01 to 0.1 µM each time.

On to `Cc1cccc(Cl)c1-n1ncc2c1COC[C@H]2NC(=O)c1noc2c1CCCC2` [Ex-38, (S)—N-(1-(2-chloro-6-methylphenyl)-1,4,5,7-tetrahydropyrano[3,4-c]pyrazol-4-yl)-4,5,6,7-tetrahydrobenzo[d]isoxazole-3-carboxamide], for which the IC50 on recombinant human DHODH (setting [3]) and in the data set on MOLM-13 cells (setting [4]) was < 0.01 µM each time.

On to `CCc1c(C(=O)N[C@@H]2COCc3c2cnn3-c2c(C)cccc2Cl)n[nH]c1C` [Ex-39, (S)—N-(1-(2-chloro-6-methylphenyl)-1,4,5,7-tetrahydropyrano[3,4-c]pyrazol-4-yl)-4-ethyl-5-methyl-1H-pyrazole-3-carboxamide], for which the IC50 at recombinant human DHODH (setting [3]) is 0.01 to 0.1 µM; with MOLM-13 cells (MOLM-13, 72 h) it was 0.01 to 0.1 µM.

Consider `O=C(N[C@@H]1COCc2c1cnn2-c1cccc(C(F)(F)F)c1Cl)c1ncn2c1CCCC2` [Ex-50, (S)—N-(1-(2-chloro-3-(trifluoromethyl)phenyl)-1,4,5,7-tetrahydropyrano[3,4-c]pyrazol-4-yl)-5,6,7,8-tetrahydroimidazo[1,5-a]pyridine-1-carboxamide], for which the IC50 at recombinant human DHODH (setting [3]) was 0.01 to 0.1 µM; with MOLM-13 cells (setting [4]) it was < 0.01 µM.

As for `COc1cccc(Cl)c1-n1ncc2c1COC[C@H]2NC(=O)c1ncn2c1CCCC2` [Ex-60, (S)—N-(1-(2-chloro-6-methoxyphenyl)-1,4,5,7-tetrahydropyrano[3,4-c]pyrazol-4-yl)-5,6,7,8-tetrahydroimidazo[1,5-a]pyridine-1-carboxamide], the IC50 at recombinant human DHODH (setting [3]) and in the data set with MOLM-13 cells (setting [4]) was 0.01 to 0.1 µM throughout.

With `O=C(N[C@@H]1COCc2c1cnn2-c1cccc(O)c1Cl)c1ncn2c1CCCC2` [Ex-62, (S)—N-(1-(2-chloro-3-hydroxyphenyl)-1,4,5,7-tetrahydropyrano[3,4-c]pyrazol-4-yl)-5,6,7,8-tetrahydroimidazo[1,5-a]pyridine-1-carboxamide], the IC50 at recombinant human DHODH fell in the range of 0.01 to 0.1 µM; in the data set with MOLM-13 cells (MOLM-13, 72 h), 0.01 to 0.1 µM.

Regarding `CN(C)C(=O)COc1cccc(-n2ncc3c2COC[C@H]3NC(=O)c2ncn3c2CCCC3)c1Cl` [Ex-64, (S)—N-(1-(2-chloro-3-(2-(dimethylamino)-2-oxoethoxy)phenyl)-1,4,5,7-tetrahydropyrano[3,4-c]pyrazol-4-yl)-5,6,7,8-tetrahydroimidazo[1,5-a]pyridine-1-carboxamide], the IC50 at recombinant human DHODH and in the data set on MOLM-13 cells (setting [4]) was 0.01 to 0.1 µM each time.

`COCCOc1cccc(-n2ncc3c2COC[C@H]3NC(=O)c2ncn3c2CCCC3)c1Cl` [Ex-67, (S)—N-(1-(2-chloro-3-(2-methoxyethoxy)phenyl)-1,4,5,7-tetrahydropyrano[3,4-c]pyrazol-4-yl)-5,6,7,8-tetrahydroimidazo[1,5-a]pyridine-1-carboxamide]: the IC50 on recombinant human DHODH (read-out: IC50 DHODH inhibition activity) and with MOLM-13 cells (setting [4]) was < 0.01 µM each time.

As for `O=C(N[C@@H]1COCc2c1cnn2-c1cccc(OCCO)c1Cl)c1ncn2c1CCCC2` [Ex-68, (S)—N-(1-(2-chloro-3-(2-hydroxyethoxy)phenyl)-1,4,5,7-tetrahydropyrano[3,4-c]pyrazol-4-yl)-5,6,7,8-tetrahydroimidazo[1,5-a]pyridine-1-carboxamide], the IC50 at recombinant human DHODH is 0.01 to 0.1 µM; in the data set with MOLM-13 cells (MOLM-13, 72 h), 0.01 to 0.1 µM.

With `O=C(N[C@@H]1COCc2c1cnn2-c1cccc(C(=O)N2CCCC2)c1Cl)c1ncn2c1CCCC2` [Ex-71, (S)—N-(1-(2-chloro-3-(pyrrolidine-1-carbonyl)phenyl)-1,4,5,7-tetrahydropyrano[3,4-c]pyrazol-4-yl)-5,6,7,8-tetrahydroimidazo[1,5-a]pyridine-1-carboxamide], the IC50 on recombinant human DHODH (setting [3]) and in the data set on MOLM-13 cells (setting [4]) was 0.01 to 0.1 µM each time.

`O=C(N[C@@H]1COCc2c1cnn2-c1cccc(C(=O)N2CCCCC2)c1Cl)c1ncn2c1CCCC2` [Ex-72, (S)—N-(1-(2-chloro-3-(piperidine-1-carbonyl)phenyl)-1,4,5,7-tetrahydropyrano[3,4-c]pyrazol-4-yl)-5,6,7,8-tetrahydroimidazo[1,5-a]pyridine-1-carboxamide]: the IC50 on recombinant human DHODH (setting [3]) and in the data set with MOLM-13 cells (setting [4]) was < 0.01 µM throughout.

Turning to `O=C(N[C@@H]1COCc2c1cnn2-c1cccc(C(=O)N2CCOCC2)c1Cl)c1ncn2c1CCCC2` [Ex-73, (S)—N-(1-(2-chloro-3-(morpholine-4-carbonyl)phenyl)-1,4,5,7-tetrahydropyrano[3,4-c]pyrazol-4-yl)-5,6,7,8-tetrahydroimidazo[1,5-a]pyridine-1-carboxamide], the IC50 on recombinant human DHODH and in the data set on MOLM-13 cells (setting [4]) was 0.01 to 0.1 µM each time.

Turning to `CCN(CC)C(=O)c1cccc(-n2ncc3c2COC[C@H]3NC(=O)c2ncn3c2CCCC3)c1Cl` [Ex-74, (S)—N-(1-(2-chloro-3-(diethylcarbamoyl)phenyl)-1,4,5,7-tetrahydropyrano[3,4-c]pyrazol-4-yl)-5,6,7,8-tetrahydroimidazo[1,5-a]pyridine-1-carboxamide], the IC50 at recombinant human DHODH (setting [3]) and in the data set on MOLM-13 cells (setting [4]) was 0.01 to 0.1 µM each time.

Source of the values: patent US20250388602A1 (Genase Therapeutics B.V., priority 2022, published 2025).
